Experimental data: patent publication US10441565B2, “Conjugate of memantine and arctigenin, and composition and use thereof” (Shenzhen Qingyaqirui Bio-Tech Co., Ltd., priority 2015, dated 2019)
Counter-ions that a name gives are not always drawn. Each block holds one molecule with its values, some of them ahead of it.

Legend:
[1] = Pharmacokinetics in rats after gastric gavage, ATG concentration in plasma by LC-MS; assay type: in vivo, SD rats
Experimental: This test investigated the pharmacokinetics of arctigenin (ATG) and conjugate A04 in rats. The rats were administered by gastric gavage with ATG and A04, the whole blood sample was collected at various time points, the plasma was separated, and the concentration of ATG in plasma was determined by LC-MS.
Before the test, the rats were fasted for 12 hours, with free access to water, and were fed 2 hours after administration.
Blood sampling time points: 0.5, 1.0, 2.0, 4.0, 6.0, 8.0 and 12 h after administration by gastric gavage.
0.5 mL venous blood was taken from the posterior venous plexus of the rat's eyeball at the above set time points, put in a heparinized tube, centrifuged for 5 min at 11000 rpm to separate the plasma, and froze in a refrigerator at −20° C.
200 μL acetonitrile was added into 100 μL plasma samples, vortex mixed for 1 min, and centrifuged for 5 min at 11000 rpm; all the supernatant was taken out and put in a 10 mL test tube, dried in an airflow at 40° C., dissolved in 100 μL acetonitrile-water (1:9, v/v), and 10 μL was taken for UPLC/Q-TOF MS analysis.

[2] = system: drosophila Alzheimer's disease model wherein humanized A342 was overexpressed; test: Pavlovian olfactory memory test, rescue of memory impairment in drosophila AD model; assay type: in vivo
Excerpt: A drosophila Alzheimer's disease model wherein humanized A342 was overexpressed (the model drosophila has significant learning and memory defects), was employed in the present invention to evaluate the effect of conjugate A04 in rescuing the learning and memory ability of the model drosophila.
Pavlovian olfactory memory platform was improved from the literatures (see Tully, T. et al., Classical conditioning and retention in normal and mutant Drosophila melanogaster. (1985) J. Comp. Physiol. A 157: 263-277; Tully, T. et al., Genetic dissection of consolidated memory in Drosophila. (1994) Cell 79: 35-47; Yin, J. C. et al., Induction of a dominant negative CREB transgene specifically blocks long-term memory in Drosophila. (1994) Cell 79: 49-58). The learning and memory test was performed in a behavior room having a constant temperature and humidity (25° C. and 70% relative humidity). The test comprises two stages:
training stage: about a hundred drosophilas were placed into a training tube covered with copper net inside, and the drosophilas sequentially smelt two odors (octanol (OCT) and methylcyclohexanol (MCH)). Each odor lasted for 1 minute, and after each of the odors, 45 seconds of fresh air were passed through. The drosophilas were subjected to 1 minute of electric shock only when it smelt the first odor. Such a set of procedures constituted a training cycle. In order to avoid the natural preference of the drosophilas for odors, one tube of the drosophilas smelt OCT first and then received an electric shock at each data point, while the other tube of the drosophilas smelt MCH first and then received an electric shock, and the mean value of the test results of the 2 tubes of drosophilas was a data point.
test stage: the drosophilas were immediately transferred to the selection point of a T-maze after the training, and then they were made to choose between the containers of the two odors within two minutes. After 2 minutes, the numbers of drosophilas in different containers were respectively counted, and the performance index (PI) was calculated. […]

[3] = system: APP/PS1 transgenic AD model mice; test: Morris water maze test, memory impairment of APP/PS1 transgenic AD model mice; assay type: in vivo; conditions: 50 mg/kg/day by gastric gavage for 60 days, versus solvent-treated transgenic mice, FIG. 3
Experimental: In the present invention, conjugate A04 was administered by gastric gavage to APP/PS1 transgenic AD model mice, and then the effect of conjugate A04 on the memory impairment of transgenic AD model mice was detected through the classic Morris water maze test.
In this experiment, APP/PS1 double transgenic AD model mice, which developed Aβ deposition when they were about 6 months old, and had impairment on the space memory when they were about 7 months old, were employed. Therefore, in this experiment, the impairment on the space memory of the mice was further detected via the water maze test, and at the same time, whether conjugate A04 has a therapeutic or improving effect on the memory impairment was evaluated.
1) Identification of APP/PS1 double transgenic AD model mice: the mice's tail was snipped off, then the gene sequence of APP/PS1 in mice was identified by PCR. The wild type C57 (B6C3) mice were used as the negative control mice. […]
3) Morris water maze test: a mixture of water and fresh milk at a temperature of 19-20° C. was injected into a white round pool with a diameter of 120 centimeters daily in the test. […] The motion track and speed of the mice were automatically recorded by Anymaze and the matched camera. The average time of searching the platform in the four tests per day was recorded as the time for searching the platform on that day (latent period). […]

oral bioavailability ([1]; according to further investigations of the present inventors): poor
ATG plasma concentration ([1]; rats, 20 mg/kg ATG by gastric gavage, lower detection limit 1.0 ng/ml): < 1.0 ng/mL
Structure (SMILES): COc1cc(C[C@H]2C(=O)OC[C@@H]2Cc2ccc(OC)c(OC)c2)ccc1O [ATG, arctigenin]

Structure (SMILES): COc1ccc(C[C@H]2COC(=O)[C@@H]2Cc2ccc(OC(=O)NCCNC(=O)[C@@H](N)COC(=O)NC34CC5CC(C)(CC(C)(C5)C3)C4)c(OC)c2)cc1OC [Conjugate A04]
rescue effect on the memory impairment of AD drosophilas compared with Mem ([2]; 100 μM, 7 days, FIG. 2): better rescue effect on the memory impairment of AD drosophilas than Mem
latent period in the Morris water maze test [3]: significantly shorter than that of the transgenic mice treated with the solvent

Structure (SMILES): CC12CC3CC(C)(C1)CC(N)(C3)C2 [Mem, memantine]
performance index (PI) ([2]; AD drosophilas, 100 μM in 4% sucrose, 4 hours per day for 7 days, AD negative control PI 41, genetic control 19 higher): 55
rescue effect ([2]; AD drosophilas, negative control group 0%, genetic control group 100%): more than 50%

Structure (SMILES): CC12CC3CC(C)(C1)CC(N)(C3)C2 [memantine hydrochloride]
latent period in the Morris water maze test [3]: no significant change compared with that of the transgenic AD model mice
